According to the supplement of paper PMC10307832:

Assays:
Test in all cases: relative viability (nuclei count vs DMSO), 5 days (fraction); higher = more cells survive
[1] = compound: Cc1ccccc1C(C(=O)NC1CCCCC1)N(C(=O)Cn1ccnc1C)c1cccc(F)c1 [IDH-C35] + Cc1nc(NC(=O)N2CCC[C@H]2C(N)=O)sc1-c1ccnc(C(C)(C)C(F)(F)F)c1 [Alpelisib] (partner 2 µM)
Procedure, shortened: (§1)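 After 5 days of treatment, lung cancer cells in 1536-well plates were fixed and stained in a single step (final 0.05% Triton X-100, 1% formaldehyde, 1 ug/ml Hoechst) and their nuclei counted on 4× images. Treatment had been applied by pin tool the day after seeding as one drug alone or as a fixed anchor-drug dose with five library-drug doses (not always all listed) in √10 steps. Relative viability is the nuclei count of treated wells divided by that of vehicle wells, and values are medians of duplicate plates.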

[2] = compound: Cc1ccccc1C(C(=O)NC1CCCCC1)N(C(=O)Cn1ccnc1C)c1cccc(F)c1 [IDH-C35] + CS(=O)(=O)CCNCc1ccc(-c2ccc3ncnc(Nc4ccc(OCc5cccc(F)c5)c(Cl)c4)c3c2)o1 [Lapatinib] (partner 2 µM)
Procedure, shortened: as §1

[3] = compound: CC1=C(C(=NN1)C)CC2=C(C3=C(S2)N(C(=O)N(C3=O)C)CC(C)C)C(=O)N4C[C@@H](CO4)O + CS(=O)(=O)CCNCc1ccc(-c2ccc3ncnc(Nc4ccc(OCc5cccc(F)c5)c(Cl)c4)c3c2)o1 [Lapatinib] (partner 2 µM)
Procedure, shortened: as §1

[4] = compound: CC1=C(C(=NN1)C)CC2=C(C3=C(S2)N(C(=O)N(C3=O)C)CC(C)C)C(=O)N4C[C@@H](CO4)O + CS(=O)(=O)N1CCN(Cc2cc3nc(-c4cccc5[nH]ncc45)nc(N4CCOCC4)c3s2)CC1 [Pictilisib] (partner 1 µM)
Procedure, shortened: as §1

| Cell Line | relative viability ([1]; first compound 0.08 µM) | relative viability ([1]; first compound 0.253 µM) | relative viability ([1]; first compound 0.8 µM) | relative viability ([1]; first compound 2.53 µM) | relative viability ([1]; first compound 8 µM) | relative viability ([2]; first compound 0.08 µM) | relative viability ([2]; first compound 0.253 µM) | relative viability ([2]; first compound 0.8 µM) | relative viability ([2]; first compound 2.53 µM) | relative viability ([2]; first compound 8 µM) | relative viability ([3]; first compound 0.0025 µM) | relative viability ([3]; first compound 0.007906 µM) | relative viability ([3]; first compound 0.025 µM) | relative viability ([3]; first compound 0.07906 µM) | relative viability ([3]; first compound 0.25 µM) | relative viability ([4]; first compound 0.0025 µM) | relative viability ([4]; first compound 0.007906 µM) | relative viability ([4]; first compound 0.025 µM) | relative viability ([4]; first compound 0.07906 µM) | relative viability ([4]; first compound 0.25 µM) |
| --- | --- | --- | --- | --- | --- | --- | --- | --- | --- | --- | --- | --- | --- | --- | --- | --- | --- | --- | --- | --- |
| NCI-H1299 | 1.06 | 1.02 | 1.09 | 1.05 | 1.04 | 1.02 | 0.975 | 0.967 | 0.936 | 0.898 | 0.953 | 0.992 | 0.93 | 0.935 | 0.986 | 0.772 | 0.958 | 0.931 | 0.944 | 0.945 |
| NCI-H2228 | 0.744 | 0.722 | 0.735 | 0.779 | 0.74 | 1.02 | 0.984 | 0.925 | 0.985 | 0.931 | 1.03 | 1.02 | 1.37 | 0.961 | 1.34 | 0.546 | 0.356 | 0.439 | 0.352 | 0.443 |
| IA-LM | 0.998 | 0.9 | 0.793 | 0.761 | 0.584 | 0.721 | 1.03 | 0.721 | 0.809 | 0.535 | 1.04 | 0.863 | 0.924 | 0.816 | 1.05 | 0.393 | 0.272 | 0.395 | 0.347 | 0.375 |
| NCI-H647 | 1.14 | 1.23 | 1.14 | 1.12 | 0.917 | 1.01 | 1.08 | 0.999 | 1.09 | 0.86 | 1.28 | 1.35 | 1.04 | 1.15 | 1.19 | 0.494 | 0.444 | – | 0.525 | 0.483 |
| SK-MES-1 | 1.02 | 1.01 | 0.873 | 0.887 | 0.833 | 0.435 | 0.49 | 0.446 | 0.481 | 0.413 | 0.474 | 0.462 | 0.445 | 0.434 | 0.454 | 0.385 | 0.421 | 0.369 | 0.398 | 0.432 |
| NCI-H2170 | 0.798 | 0.776 | 0.832 | 0.795 | 0.788 | 0.254 | 0.259 | 0.28 | 0.274 | 0.272 | 0.282 | 0.279 | 0.276 | 0.273 | 0.306 | 0.228 | 0.293 | 0.298 | 0.341 | 0.297 |
| NCI-H2085 | 0.973 | 0.897 | 0.799 | 1.01 | 0.863 | 0.834 | 0.741 | 0.764 | 0.848 | 0.728 | 0.706 | 0.767 | 0.598 | 0.72 | 0.595 | 0.527 | 0.455 | 0.449 | 0.468 | 0.399 |
| SW 1573 | 0.745 | 0.699 | 0.685 | 0.692 | 0.754 | 1.2 | 1.26 | 1.09 | 1.05 | 1.09 | 1.09 | 1.02 | 1.05 | 1.04 | 1.19 | 0.472 | 0.589 | 0.595 | 0.419 | 0.412 |
| NCI-H727 | 0.536 | 0.719 | 0.543 | 0.582 | 0.83 | 0.874 | 0.779 | 0.801 | 0.728 | 0.947 | 1.17 | 0.857 | 0.781 | 0.569 | 0.869 | 0.403 | 0.483 | 0.336 | 0.385 | 0.517 |
| LOU-NH91 | 0.746 | 0.774 | 0.712 | 0.711 | 0.706 | 0.798 | 0.813 | 0.776 | 0.749 | 0.767 | 0.74 | 0.755 | 0.815 | 0.781 | 0.813 | 0.503 | 0.494 | 0.495 | 0.571 | 0.529 |
| NCI-H3122 | 0.904 | 0.739 | 0.729 | 0.78 | 0.849 | 1.06 | 0.951 | 1.04 | 1 | 1.03 | 1.06 | 1.03 | 1.01 | 0.993 | 1.02 | 0.644 | 0.618 | 0.642 | 0.606 | 0.587 |
| NCI-H460 | 0.472 | 0.504 | 0.545 | 0.549 | 0.439 | 1.19 | 1.11 | 0.978 | 0.888 | 0.963 | 0.959 | 1.34 | 0.996 | 1.08 | 1.28 | 0.432 | 0.492 | 0.356 | 0.367 | 0.387 |
| NCI-H650 | 1.07 | 1.13 | 1.17 | – | 1.03 | 0.588 | 0.824 | 0.85 | – | 0.884 | 0.939 | 0.0037 | 0.753 | 0.893 | 0.956 | 0.898 | 0.826 | 0.819 | 0.824 | 0.926 |
| NCI-H661 | 0.589 | 0.852 | 0.529 | 0.689 | 0.711 | 0.634 | 0.447 | 0.362 | 0.519 | 0.351 | 0.523 | 0.649 | 0.464 | 0.623 | 0.493 | 0.473 | 0.41 | 0.378 | 0.379 | 0.385 |
| NCI-H1793 | 0.764 | 0.689 | 0.76 | 0.74 | 0.677 | 0.652 | 0.648 | 0.833 | 0.674 | 0.652 | 0.514 | 0.649 | 0.549 | 0.431 | 0.426 | 0.308 | 0.395 | 0.166 | 0.226 | 0.272 |
| NCI-H1734 | 0.764 | 0.694 | 0.72 | 0.641 | 0.648 | 1.05 | 1.18 | 1.06 | 0.94 | 1.02 | 1.19 | 1.11 | 1.02 | 0.986 | 0.812 | 0.474 | 0.544 | 0.488 | 0.473 | 0.486 |
| LXF-289 | 1.04 | 1.03 | 1.01 | 0.994 | 1.03 | 0.9 | 0.893 | 0.91 | 0.965 | 0.877 | 0.909 | 0.855 | 0.875 | 0.891 | 0.975 | 0.862 | 0.82 | 0.779 | 0.804 | 0.826 |
| H3255 | 0.681 | 0.822 | 0.633 | 0.774 | 0.637 | 0.246 | 0.244 | 0.283 | 0.304 | 0.414 | 0.24 | 0.244 | 0.25 | 0.241 | 0.223 | 0.523 | 0.473 | 0.43 | 0.45 | 0.62 |
| 201T | 0.989 | 0.998 | 0.95 | 0.968 | 1.02 | 1.05 | 1.04 | 1.02 | 0.973 | 1.01 | 1.05 | 1 | 1.03 | 0.986 | 1.06 | 0.708 | 0.704 | 0.688 | 0.653 | 0.679 |
| NCI-H2126 | 0.766 | 0.758 | 0.745 | 0.737 | 0.752 | 0.77 | 0.77 | 0.705 | 0.777 | 0.739 | 0.816 | 0.739 | 0.78 | 0.741 | 0.739 | 0.513 | 0.493 | 0.509 | 0.478 | 0.494 |
| HOP-62 | 1.07 | 0.876 | 0.953 | – | 0.85 | 0.945 | 1.06 | 1.01 | – | 0.948 | 1.05 | 0.946 | 1.05 | 0.952 | 1.08 | 0.719 | 0.876 | 0.903 | 0.787 | 0.825 |
| CAL-12T | 1.26 | 1.26 | 1.11 | 1.14 | 1.1 | 0.655 | 0.578 | 0.728 | 0.749 | 0.7 | 0.822 | 0.82 | – | 0.837 | 0.766 | 0.502 | 0.57 | – | 0.588 | 0.518 |
| NCI-H520 | 0.71 | 0.808 | 0.891 | 0.845 | 0.954 | 0.895 | 0.979 | 0.765 | 0.884 | 0.914 | 0.983 | 0.823 | 0.621 | 0.496 | 0.544 | 0.32 | 0.259 | 0.304 | 0.269 | 0.288 |
| NCI-H1755 | 0.976 | 0.875 | 0.955 | 0.927 | 0.877 | 1.08 | 1.03 | 0.992 | 1.03 | 1.02 | 1.04 | 0.919 | 1.02 | 1.04 | 1.07 | 0.445 | 0.42 | 0.44 | 0.479 | 0.497 |
| NCI-H2023 | 0.598 | 0.581 | 0.579 | 0.492 | 0.611 | 0.938 | 0.921 | 0.83 | 0.263 | 0.808 | 1.1 | 0.965 | 0.903 | 1.03 | 0.861 | 0.308 | 0.288 | 0.276 | 0.23 | 0.236 |
| NCI-H2009 | 1.24 | 1.12 | 1.1 | 1.15 | 1.1 | 1 | 0.928 | 0.908 | 0.639 | 0.729 | 1.12 | 1.48 | 0.963 | 1.04 | 1.26 | 0.875 | 0.884 | 0.842 | 0.998 | 0.909 |
